Experimental data published in paper PMC10571995, “Near-Infrared Imaging of Colonic Adenomas In Vivo Using Orthotopic Human Organoids for Early Cancer Detection” (Cancers, 2023).
Residues, ends and D or L forms follow the SMILES beside them. *: point of attachment. X2 = CC1(C)C(/C=C/C2=C(Oc3ccc(S(=O)(=O)O)cc3)C(=C/C=C3/N(CCCCCC(=O)NCCN4C(=O)CC(*)C4=O)c4ccc(S(=O)(=O)O)cc4C3(C)C)/CCC2)=[N+](CCCCS(=O)(=O)[O-])c2ccc(S(=O)(=O)O)cc21; X1 = CC1(C)C(=CC=C2CCCC(C=CC3=[N+](CCCCS(=O)(=O)[O-])c4ccc(S(=O)(=O)O)cc4C3(C)C)=C2Oc2ccc(S(=O)(=O)O)cc2)N(CCCCCC(=O)NCCN2C(=O)CC(*)C2=O)c2ccc(S(=O)(=O)O)cc21

Experiments:
colonic adenomas = experiment: In vivo NIR fluorescence endoscopy of spontaneous colonic adenomas in CPC;Apc mice (pharmacokinetics, T/B ratio); parameters: species or system mouse
Protocol: CPC;Apc mice have been genetically engineered to sporadically delete an APC gene regulated by a Cre promoter (CDX2P-9.5NLS-Cre) to spontaneously form either flat or polypoid adenomas in the distal colon.
The IRDye800-labeled target peptide (200 μM, 200 μL) was injected intravenously in Cpc;Apc mice, and fluorescence images were collected at 0, 0.5, 1, 2, 4, 6, 10, 24, 48 h post-injection using the small animal endoscope. The IRDye800-labeled scrambled (control) peptide was administered and imaged the same way 3 days after. The adjacent nontumor tissue region with an equal area of the tumor region was used for background. The time point with the highest target-to-background (T/B) ratio was selected as peak uptake.

[1] = Serum stability by analytical RP-HPLC; assay type: in vitro ADME; details: CPC;Apc mouse serum 194 μL, 30 μM peptide, 37 °C, 0, 0.5, 1, 2, 4, 8, 24 h, acetonitrile precipitation, RP-HPLC area under the peak, R^2 = 0.99; read-out: Half-life T1/2 in mouse serum (converted)
Protocol: Peptide stability was evaluated by incubating 6 μL of 1 mM peptide in PBS at 37 °C, resulting in a final concentration of 30 μM in 194 μL of serum obtained from a CPC;Apc mouse. Samples were precipitated by adding a double volume of acetonitrile and centrifuging for 10 min at 4 °C. RP-HPLC was performed at 0, 0.5, 1, 2, 4, 8, and 24 h. The relative peptide concentrations were determined by measuring the area under the peak (Waters, Breeze 2). The coefficient of determination R^2 was determined using Graphpad Prism 8 software (GraphPad Software, Boston, MA, USA).

[2] = Peptide safety: necropsy histology (H&E), blood hematology and chemistry; assay type: in vivo, mouse; details: CPC;Apc mice, 200 μM, 200 μL i.v., 48 h post-injection
Protocol: CPC;Apc mice were euthanized at 48 hours post-injection with QQT* -IRDye800 (200 μM, 200 μL). Vital organs were excised, sectioned, and evaluated by routine histology (H&E) to evaluate for signs of acute toxicity. Whole blood was collected retro-orbitally using a capillary tube and submitted for evaluation of hematology and chemistry.

cMet [3] = biological target: T1, cMet (Homo sapiens, UniProt P08581); experiment: In vivo NIR fluorescence endoscopy of patient-derived colonoids implanted orthotopically in NSG mouse colon; details: NSG mice, 1 h post-injection, n = 6 mice
T1 construct: Human colonoids provide clinically relevant levels of target expression; endogenous in cells; host or cells: Patient-derived human colonoids (cMet-high adenoma, cMet-low adenoma, normal), either cultured or implanted orthotopically in NSG mouse colon
T1 sequence (P08581 25-1390): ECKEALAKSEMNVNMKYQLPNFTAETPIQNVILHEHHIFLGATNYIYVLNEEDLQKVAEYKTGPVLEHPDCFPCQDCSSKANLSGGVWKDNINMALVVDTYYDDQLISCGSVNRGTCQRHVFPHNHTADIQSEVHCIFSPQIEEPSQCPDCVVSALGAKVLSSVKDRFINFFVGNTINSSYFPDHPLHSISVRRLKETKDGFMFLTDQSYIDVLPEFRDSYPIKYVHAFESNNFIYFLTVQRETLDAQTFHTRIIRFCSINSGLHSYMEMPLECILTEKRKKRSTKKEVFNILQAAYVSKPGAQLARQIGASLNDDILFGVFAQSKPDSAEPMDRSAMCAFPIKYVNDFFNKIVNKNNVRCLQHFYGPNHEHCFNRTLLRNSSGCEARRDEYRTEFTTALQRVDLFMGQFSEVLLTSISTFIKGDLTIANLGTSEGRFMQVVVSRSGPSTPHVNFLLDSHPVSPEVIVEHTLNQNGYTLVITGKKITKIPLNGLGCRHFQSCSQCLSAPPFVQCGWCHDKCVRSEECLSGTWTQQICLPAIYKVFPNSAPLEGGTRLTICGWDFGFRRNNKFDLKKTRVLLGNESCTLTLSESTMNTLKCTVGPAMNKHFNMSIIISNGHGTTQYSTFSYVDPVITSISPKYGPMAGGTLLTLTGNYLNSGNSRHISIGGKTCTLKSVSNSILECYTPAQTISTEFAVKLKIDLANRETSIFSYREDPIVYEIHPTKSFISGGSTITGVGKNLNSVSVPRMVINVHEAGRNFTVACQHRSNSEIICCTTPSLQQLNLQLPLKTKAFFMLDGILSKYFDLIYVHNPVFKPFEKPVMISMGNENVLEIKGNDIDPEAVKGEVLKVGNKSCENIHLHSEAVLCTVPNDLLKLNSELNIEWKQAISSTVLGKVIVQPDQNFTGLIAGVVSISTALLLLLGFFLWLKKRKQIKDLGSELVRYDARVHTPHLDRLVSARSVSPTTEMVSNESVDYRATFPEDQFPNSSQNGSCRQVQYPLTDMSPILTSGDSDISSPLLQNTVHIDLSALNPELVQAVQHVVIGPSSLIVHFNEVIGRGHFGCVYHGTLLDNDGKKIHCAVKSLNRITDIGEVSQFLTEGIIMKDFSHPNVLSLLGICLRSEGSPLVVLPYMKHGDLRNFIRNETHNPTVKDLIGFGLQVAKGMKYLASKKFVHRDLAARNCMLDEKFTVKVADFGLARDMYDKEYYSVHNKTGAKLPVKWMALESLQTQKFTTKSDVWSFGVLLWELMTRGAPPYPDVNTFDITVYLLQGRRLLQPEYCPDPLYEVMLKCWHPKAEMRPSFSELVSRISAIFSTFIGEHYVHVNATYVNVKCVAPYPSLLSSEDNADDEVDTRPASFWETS
Protocol: Colonoids were harvested and treated, as described previously. Colonoids were resuspended in engraftment medium: DPBS, 5% Matrigel, 10 µM Y27632. Prior to colonoid implantation, 7–12-week-old NSG (NOD.Cg-Prkdc^scidIl2rg^tm1Wjl/SzJ, Jackson laboratory, #005557) mice were treated with 2.5% dextran sulfate sodium (DSS) for 5 days and supplied with regular water for another day. Anesthesia was induced and maintained via a nose cone with inhaled isoflurane mixed with oxygen at concentrations of 2–4% at a flow rate of 0.5 L/min. A total of ~2.5–5 × 10^5 cell aggregates in 200 μL were injected intrarectally. The rectum was closed immediately using tissue adhesive (Santa Cruz Biotechnology, Dallas, TX, USA; #SC361931) to promote retention of the implanted colonoids. Colonoid growth was monitored weekly by small animal endoscopy with white light illumination. Imaging was performed after the implanted adenomas were clearly visible.
Mice were fasted for 4–6 h prior to in vivo imaging. Anesthesia was induced and maintained using inhaled isoflurane mixed with oxygen at concentrations of 2–4% and a flow rate of 0.5 L/min via a nose cone. The peptides were injected intravenously using a concentration of 200 μM diluted in 200 μL of PBS. A rigid small animal endoscope (Karl Storz Veterinary Endoscopy, Goleta, CA, USA) was modified to deliver NIR excitation at λex = 785 nm. This instrument was inserted into the mouse rectum at 1 h post-injection to collect in vivo fluorescence images. After 3 days to allow for target peptide clearance, the scrambled (control) peptide was administered systemically and imaged similarly. A total of n = 3 independent regions of interest (ROI) with dimensions of 20 × 20 μm^2 were identified randomly from the implanted area (target) and from adjacent normal colonic mucosa (background). The mean fluorescence intensities were used to calculate target-to-background (T/B) ratios.

cMet [4] = biological target: T1, cMet; experiment: Peptide biodistribution, ex vivo NIR fluorescence of resected organs and colonoids (Pearl Trilogy); assay type: in vivo; details: NSG mice, 200 μM, 200 μL i.v., 1 hour post-injection, ex vivo λex 785 / λem 820 nm, mean ± SD
Protocol: Peptides (200 μM, 200 μL) were injected intravenously in NSG mice ~3 weeks after orthotopic implantation of the patient-derived colonoids. The mice were euthanized at 1 h post-injection. Major organs were resected and imaged using the Pearl Trilogy (LI-COR Biosciences) with excitation at λex = 785 nm and emission at λem = 820 nm to measure the peptide biodistribution. Fluorescence intensities were quantified from each whole tumor or organ using Image Studio 5.5.4 software (LI-COR Biosciences).

cMet [5] = biological target: T1, cMet; experiment: Ex vivo immunofluorescence of excised NSG mouse colon with implanted colonoids, human-to-mouse (h/m) ratio; assay type: binding; details: excised NSG colon sections, peptide 5 μM 10 min RT, antibody 1:100, mean ± SD, n = 6 colonoids
Protocol: Tissue sections were deparaffinized, and antigen retrieval was performed as described previously. Sections were blocked with goat serum for 30 min at RT followed by overnight incubation with 1:100 dilution of monoclonal anti-cMet antibody (Abcam; #EP1454Y) and undiluted human-specific anti-cytokeratin (CAM 5.2, BD Biosciences, Franklin Lakes, NJ, USA; #345779) at 4 °C. Thereafter, 1:500 AF488-labeled goat anti-rabbit secondary antibody (Life Technologies; #A-11029) and 1:500 AF568-labeled goat anti-mouse secondary antibody (Abcam, #ab175473) were administered. After washing with PBST, the slides were stained with the IRDye800-labeled peptides at a concentration of 5 μM for 10 min at RT. The tissue sections were then washed with PBST and mounted using a Prolong Gold reagent containing DAPI (Invitrogen; #P36931). NIR fluorescence images were collected using an inverted confocal microscope (Leica; Stellaris 5). The fluorescence intensities were quantified using custom MATLAB R2022a, and regions of saturated intensities were avoided.

[6] = 200 μM, 200 μL i.v., images at 0-48 h
[7] = spontaneous adenomas, 1 hour after i.v. administration, mean ± SD
[8] = 200 μM in 200 μL i.v., mean ± SD

SMILES	Peak T/B ratio (peak uptake by the adenoma) (colonic adenomas; 200 μM, 200 μL i.v., at 1 h post-injection, mean ± SD, n = 6 mice)	Time of peak uptake (peak T/B ratio) post-injection (colonic adenomas; [6])	Time to clearance of signal (return to baseline) (colonic adenomas; [6])	T/B ratio, flat lesions (colonic adenomas; [7])	T/B ratio, grossly visible adenomas (colonic adenomas; [7])	T/B ratio, small adenomas (colonic adenomas; [7])	half-life at 30 μM [1]	Acute toxicity in animal necropsy, histology (H&E) of vital organs [2]	Whole blood hematology and chemistry ([2]; n = 6 mice)	Quantified fluorescence intensity (T/B ratio) in vivo, cMet^high adenoma (cMet [3]; 200 μM in 200 μL i.v., endoscope λex 785 nm, mean ± SD)	Quantified fluorescence intensity (T/B ratio) in vivo, cMet^low adenoma (cMet [3]; [8])	Quantified fluorescence intensity (T/B ratio) in vivo, normal colonoid (cMet [3]; [8])	Fold increase QQT*-IRDye800 versus TLQ*-IRDye800, cMet^high adenoma (cMet [3])	Uptake (quantified fluorescence) by cMet^high adenoma colonoid (cMet [4])	Uptake (quantified fluorescence) by cMet^low adenoma colonoid (cMet [4])	Uptake (quantified fluorescence) by normal human colonoid (cMet [4])	Fluorescence intensity human-to-mouse (h/m) ratio, cMet^high adenoma colonoid (cMet [5])	Fluorescence intensity human-to-mouse (h/m) ratio, cMet^low adenoma (cMet [5])	Fluorescence intensity human-to-mouse (h/m) ratio, normal colonoid (cMet [5])
CC(C)C[C@H](NC(=O)[C@H](CO)NC(=O)[C@H](Cc1c[nH]c2ccccc12)NC(=O)[C@H](CC(N)=O)NC(=O)[C@@H](NC(=O)[C@H](CCC(N)=O)NC(=O)[C@@H](N)CCC(N)=O)[C@@H](C)O)C(=O)NCC(=O)NCC(=O)NCC(=O)N[C@@H](CO)C(=O)N[C@@H](CSC1CC(=O)N(CCNC(=O)CCCCCN2C(=CC=C3CCCC(C=CC4=[N+](CCCCS(=O)(=O)[O-])c5ccc(S(=O)(=O)O)cc5C4(C)C)=C3Oc3ccc(S(=O)(=O)O)cc3)C(C)(C)c3cc(S(=O)(=O)O)ccc32)C1=O)C(N)=O (stereo partly drawn) [QQT*-IRDye800] (H-QQTNWSLGGGSC(X1)-NH2; N-terminus and C-terminus assumed)	2.2 ± 0.4	1 h	~ 24 h	2.17±0.30	1.91±0.28	2.23±0.43	3.6 h	No signs of acute toxicity	No significant abnormalities	2.35 ± 0.35	1.19 ± 0.12	1.22 ± 0.18	1.8 fold	1.24±0.16	0.23±0.08	0.18±0.04	7.68 ± 1.23	0.87 ± 0.31	1.19 ± 0.39
CC(C)C[C@H](NC(=O)[C@@H](N)[C@@H](C)O)C(=O)N[C@@H](CCC(N)=O)C(=O)N[C@@H](Cc1c[nH]c2ccccc12)C(=O)N[C@@H](CC(N)=O)C(=O)N[C@@H](CCC(N)=O)C(=O)N[C@@H](CO)C(=O)NCC(=O)NCC(=O)NCC(=O)N[C@@H](CO)C(=O)N[C@@H](CSC1CC(=O)N(CCNC(=O)CCCCCN2/C(=C/C=C3\CCCC(/C=C/C4=[N+](CCCCS(=O)(=O)[O-])c5ccc(S(=O)(=O)O)cc5C4(C)C)=C3Oc3ccc(S(=O)(=O)O)cc3)C(C)(C)c3cc(S(=O)(=O)O)ccc32)C1=O)C(N)=O (stereo partly drawn) [TLQ*-IRDye800, reference compound] (H-TLQWNQSGGGSC(X2)-NH2)	–	–	–	–	–	–	–	–	–	–	–	–	–	0.29±0.098	0.25±0.06	–	–	–	–
